Values quoted from earlier work, collected in patent US8202858B2, “Vasopressin V1a antagonists” (priority 2004, dated 2012).

Molecular target: T1, V1a vasopressin receptor (Homo sapiens, UniProt P37288)
T1 construct: host or cells: patients (clinical study)
Conditions: patients with dysmenorrhoea, compared to placebo

T1 sequence (P37288 whole entry): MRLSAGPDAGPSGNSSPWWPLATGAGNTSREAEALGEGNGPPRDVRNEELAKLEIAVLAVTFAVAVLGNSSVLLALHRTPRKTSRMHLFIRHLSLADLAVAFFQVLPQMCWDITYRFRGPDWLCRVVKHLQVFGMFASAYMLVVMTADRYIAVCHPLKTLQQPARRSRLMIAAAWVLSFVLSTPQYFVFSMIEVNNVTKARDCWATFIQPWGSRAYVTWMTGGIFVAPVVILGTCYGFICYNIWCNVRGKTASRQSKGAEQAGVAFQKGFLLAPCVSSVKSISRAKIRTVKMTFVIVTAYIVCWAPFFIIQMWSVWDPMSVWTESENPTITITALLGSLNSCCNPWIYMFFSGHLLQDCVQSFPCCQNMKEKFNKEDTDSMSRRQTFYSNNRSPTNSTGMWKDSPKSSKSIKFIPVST

Compound: COc1ccc(S(=O)(=O)N2c3ccc(Cl)cc3[C@](O)(c3ccccc3Cl)[C@@H]2C(=O)N2CCC[C@H]2C(N)=O)cc1OC [SR49059]
- amount of additional pain-killer taken: dose-related decrease in the amount of additional pain-killer taken
- pain: dose-related decrease in pain
